According to US10851165B2, “Antibody molecules to PD-L1 and methods of treating cancer” (Novartis AG, priority 2014, dated 2020):

How the values were obtained:
[1] = system: PD-L1 (CD274) in EBC-1 cells; assay: PD-L1 surface expression by flow cytometry in EBC-1 cells in vitro; format: cell-based, human; settings: EBC-1 cells (NSCLC with cMET amplification) in vitro; 10 nM, 100 nM, 1000 nM; 24, 48 and 72 hours; vs DMSO
Experimental: EBC-1 cells are non-small cell lung cancer cells with a cMET amplification.
PD-L1 (CD274) expression was analyzed in cancer cell lines treated with Compound A17. Cells were obtained from ATCC and cultured in vitro following ATCC directions. The cell lines used were previously characterized by the Cancer Cell Line Encyclopedia Project (http://www.broadinstitute.org/ccle/home).
Cells plated in six-well culture plates were treated with the Compound A17 at different concentrations (10 nM, 100 nM, and 1000 nM) for 24, 48 and 72 hours. Equal amount of vehicle (DMSO) was used as a control. Cells were washed with PBS and then harvested using a cell scraper.
For each reaction, 0.5-1×10^6 cells were stained with 20 μL of anti-human monoclonal PD-L1-PE antibody, clone M1H1 (BD) for 30-60 minutes at 4° C. Cells were washed twice and data was acquired using a Canto II with FACSDiva software (BD Bioscience). Data analysis was performed using FlowJo software (Tree Star). Mean fluorescence intensity (MFI) was determined by gating on single cells. Unstained cells were used as a gating control.

[2] = system: PD-L1 (CD274) mRNA in Hs.746.T tumor; assay: PD-L1 mRNA by TaqMan RT PCR in Hs.746.T tumor xenograft; format: in vivo, human; settings: Hs.746.T tumor (gastric cancer cell with cMET amplification & mutation) xenograft
Experimental: Hs.746.T cells are gastric cancer cells with a c-MET amplification and a c-MET mutation.
(§1) Isolated RNA was frozen at −80° C.
(§2) Each sample was run in triplicate.

[3] = system: PD-L1 (CD274) mRNA in UKE-1 tumors; assay: PD-L1 mRNA by TaqMan RT PCR in UKE-1 tumor xenograft model; settings: tumor xenograft model bearing UKE-1 (MPN line with JAK2V617F mutation)
[4] = system: PD-L1 (CD274) mRNA in H3122 cells; assay: PD-L1 mRNA by TaqMan RT PCR in H3122 cells in vitro; format: cell-based, human; settings: H3122 (NSCLC with ALK translocation) in vitro
Experimental: H3122 cells are non-small cell lung cancer (NSCLC) cells with an ALK translocation.
as §1, §2

[5] = system: PD-L1 (CD274) mRNA in LOXIMV1 tumors; assay: PD-L1 mRNA by TaqMan RT PCR in LOXIMV1 tumor xenograft model; format: in vivo, human; settings: tumor xenograft model bearing LOXIMV1 (BRAF mutant melanoma)
Experimental: as §1, §2

[6] = system: PD-L1 (CD274) mRNA in HEYA8 tumors; assay: PD-L1 mRNA by TaqMan RT PCR in HEYA8 tumor xenograft model; format: in vivo, human; settings: tumor xenograft model bearing HEYA8 (KRAF mutant ovarian cancer)
Experimental: as §1, §2

huPD-L1 = biological target: T1, huPD-L1 (Homo sapiens, UniProt Q9NZQ7); assay: FACS binding of chimeric and humanized BAP058 mAbs to 300.19 cells expressing huPD-L1; settings: 300.19 cell line expressing huPD-L1 on the cell surface
T1 construct: expressed in transfected cells; host or cells: 300.19 cells
Experimental: FIG. 3 is a bar graph showing the results of FACS binding analysis for the seventeen humanized BAP058 clones (BAP058-hum01 to BAP058-hum17). The antibody concentrations are 200, 100, 50, 25 and 12.5 ng/ml from the leftmost bar to the rightmost bar for each tested mAb.
Humanization of BAP058 was performed using a combinatorial library of human germline variable region frameworks (FWs). The technology entails transferring the murine CDRs in frame to a library of human variable regions (VRs) that had been constructed by randomly combining human germ line FW1, FW2 and FW3 sequences. Only one FW4 sequence was used, which is […] (SEQ ID NO: 154) for the heavy chain (HC) (Kabat human HC subgroup I, No. 21) and […] (SEQ ID NO: 186) for the light chain (LC) (Kabat human κ subgroup I, No. 5). The library of VR sequences was fused to human constant region (CR) sequences, human IgG4 (S228P) of HC and human κ CR of LC, and the resulting library of whole IgG mAbs was expressed in CHO cells for screening. Screening was performed with tissue culture supernatants measuring binding avidity on antigen-expressing cells in a whole cell ELISA format or on FACS.
Binding of the recombinant clone to human PD-L1 was tested using the 300.19 cell line expressing huPD-L1 on the cell surface and FACS analysis.

T1 sequence (Q9NZQ7 19-290): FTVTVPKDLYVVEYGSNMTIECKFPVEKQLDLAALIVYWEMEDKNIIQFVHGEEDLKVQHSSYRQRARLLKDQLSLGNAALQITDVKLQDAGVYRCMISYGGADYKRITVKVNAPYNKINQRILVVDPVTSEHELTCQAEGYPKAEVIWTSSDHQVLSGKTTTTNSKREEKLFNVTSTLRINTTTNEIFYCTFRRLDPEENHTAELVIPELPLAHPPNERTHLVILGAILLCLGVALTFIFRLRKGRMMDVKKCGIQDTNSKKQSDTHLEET

CNC(=O)c1ccc(-c2cnc3ncc(Cc4ccc5ncccc5c4)n3n2)cc1F [Compound A17, 2-fluoro-N-methyl-4-(7-(quinolin-6-ylmethyl)imidazo[1,2-b][1,2,4]triazin-2-yl)benzamide]
surface expression of PD-L1 (flow cytometry) [1]: significant downregulation of surface expression of PD-L1
PD-L1 expression (mRNA) [2]: Inhibition of PD-L1 expression (mRNA)

N#CC[C@H](C1CCCC1)n1cc(-c2ncnc3[nH]ccc23)cn1 [Compound A18, Ruxolitinib Phosphate]
PD-L1 mRNA [3]: Downregulation of PD-L1 mRNA

Cc1cc(Nc2ncc(Cl)c(Nc3ccccc3S(=O)(=O)C(C)C)n2)c(OC(C)C)cc1C1CCNCC1 [Compound A23, ceritinib]
PD-L1 mRNA [4]: Inhibition of PD-L1 mRNA

COC(=O)N[C@@H](C)CNc1nccc(-c2cn(C(C)C)nc2-c2cc(Cl)cc(NS(C)(=O)=O)c2F)n1 [Compound A29, Encorafenib]
PD-L1 mRNA [5]: Downregulation of PD-L1 mRNA

Cn1cnc2c(F)c(Nc3ccc(Br)cc3F)c(C(=O)NOCCO)cc21 [Compound A34, Binimetinib]
PD-L1 mRNA [6]: Downregulation of PD-L1 mRNA

B1: BAP058-chi: chimeric mAb: murine VR, human IgG4 (S228P), human κ (antibody, V domains shown)
VH: EVQLQQSGAELVKPGASVKLSCKASGYTFTSYWMYWVKQGPGRGLEWIGRIDPNSGSTKYNEKFKNKATLTVDKSSSTAYMQLSSLTSEDSAVYYCARDYRKGLYAMDYWGQGTTVTVSS
VL: DIMMTQSHKFMSTSVGDRVSITCKASQDVGTAVAWYQQKPGQSPKLLIYWASTRHTGVPDRFTGSGSGTDFTLTISNVQSEDLADYFCQQYNSYPLTFGQGTKVEIK
Binding to human PD-L1 (FACS analysis) (huPD-L1): bound well to the antigen
